Data: patent US20250208133A1, “SENESCENT CELL SURFACE MARKERS” (SENS RESEARCH FOUNDATION, priority 2022, published 2025)

Experiments:
Type in all cases: cell-based, human
[1] = test system: non-senescent (NS) IMR-90 cells; experiment: xCELLigence RTCA impedance viability assay, non-senescent cells; details: 48 hours of treatment with 1 μM
[2] = test system: senescent IMR-90 cells; experiment: xCELLigence RTCA impedance viability assay, senescent cells
Procedure: (§1) Human IMR-90 fibroblasts (ATCC, USA) were treated with 300 nM of doxorubicin hydrochloride (Millipore Sigma, USA; Cat #504042) in DMEM complete media for 24 hours or ionizing radiation (10 Gy X-ray) and maintained in culture. Primary human endothelial cells were treated with 250 nM of doxorubicin in promo cell basal medium supplemented with Growth Medium MV 2 Supplement Pack for 24 hours and maintained in culture. Senescent cells were used 7-13 days following treatment.
For measurement of background values, 50 μl of complete medium was added to E-Plates 96 (Agilent). Cells were seeded in a total of 200 μl of medium per well at a density of 10,000 cells per well. Cell attachment was monitored using the RTCA MP (Agilent) instrument and the RTCA software (Agilent). Media was replaced with media containing either DMSO, vacuolin-1 or apilimod. Cells treated with 0.2% Triton X-100 was used as a 100% dead cell positive control for cytotoxicity assays. After drug addition, impedance measurements were recorded every 15 minutes. All experiments were performed in at least 5 replicates for each dose. Changes in impedance were expressed as a cell index (CI) value, which derives from relative impedance changes corresponding to cellular coverage of the electrode sensors, normalized to baseline impedance values with medium only. To analyze the acquired data, CI values were exported, and percentage of attached cell surface was calculated in relation to positive controls and DMSO-treated cells.
Senescent cells are known to employ several mechanisms to increase their survival. For example, increased expression of the pro-survival BCL-family proteins has been widely studied. In fact, BCL antagonism has been the basis of many senolytic drugs (see, e.g., Zhu, et al., Aging Cell. 2016 June; 15(3):428-35). Vacuolin-1 was used to determine if lysosomal exocytosis is a mechanism for senescent cell survival. Vacuolin-1 is a potent inhibitor of Phosphatidylinositol-3-phosphate 5-kinase type III (PIKfyve), which is a key player in lysosomal exocytosis allowing lysosomes to fuse with the plasma membrane. The viability assay was performed in senescent IMR-90 cells using xCELLigence Real-Time Cell Analysis (RTCA) system that uses label-free cellular impedance to monitor cell health and viability over time.

[3] = Crystal violet staining cell viability, non-senescent cells; details: human, non-senescent IMR-90 fibroblasts, non-senescent cells, read-out: cell viability, quantification of adherent cells
Procedure: (§2) Cell viability after 48 h of apilimod (1 μM) or vacuolin-1 (1 μM) treatment was estimated by crystal violet. Cells in 6-well cell culture plates (Greiner Bio-One; Cat #657160) were washed twice with PBS, incubated with 4% paraformaldehyde for 15 minutes at room temperature, then stained with 0.25% crystal violet for 10 minutes. Cells were washed with deionized water and imaged, 3 images per well.
(§3) Apilimod is a clinical PIKfyve inhibitor. Apilimod was used to further validate the senolytic effects of PIKfyve inhibitors. […] To further characterize the potent cytotoxic effect of apilimod on non-senescent versus senescent cells, IMR-90 fibroblasts were treated with 1 μM of apilimod. […] Of note, the decrease in viable apilimod-treated non-senescent cells after 48 hours of treatment is likely in part due to a decrease in proliferation rather than viability of apilimod-treated cells.

[4] = test system: non-senescent IMR-90 fibroblasts; experiment: as above; details: 1 μM, 48 hours
Procedure: as §2, §3

[5] = test system: senescent IMR-90 fibroblasts; experiment: Crystal violet staining cell viability, senescent cells; details: 48 hours
Procedure: as §1, §2, §3

SMILES	mean normalized cell index [1]	mean normalized cell index ([2]; senescent cells, 48 hours of treatment with 1 μM)	selective killing of senescent cells by blocking lysosomal exocytosis ([2]; senescent vs NS IMR-90 cells, dose response)	senescent cell survival ([2]; 48 hours of treatment with 1 μM)	senescent cell survival ([2]; 48 hours of treatment with 5 μM)	senescent cell viability ([2]; dose response)	viability at 48 h, 1 µM [3] [%]	non-senescent cell viability, light microscopy of crystal violet-stained cells [4]	viability of senescent cells, light microscopy of crystal violet-stained cells ([5]; 1 μM)	viability at 1 µM ([5]; Homo sapiens, IMR-90, senescent condition, read-out: viable cells, quantification of adherent cells) [%]
Ic1cccc(/C=N/Nc2nc(N3CCOCC3)nc(N(c3ccccc3)c3ccccc3)n2)c1 [vacuolin-1]	1.2	0.4	selectively killed senescent IMR-90 cells in a dose-dependent manner	–	–	–	–	–	–	–
Cc1cccc(/C=N/Nc2cc(N3CCOCC3)nc(OCCc3ccccn3)n2)c1 [apilimod]	–	–	–	No senescent cells survived	No senescent cells survived	dose-dependent declines in senescent cell viability	92	no effect	significant decrease	17
